From patent US12410160B2 (Gilead Sciences, Inc., priority 2021, dated 2025) come the findings set out here.

The target of one experiment is human KHK-C (Homo sapiens (Human), UniProt P50053). Nature of the experiment: KHK Biochemical Assay (IC50), ADP-Glo, KHK-C. The following applies: average of at least two separate assays. The method, then:
(§1) The His-tagged fusion protein was expressed using BL21 (DE3) with IPTG induction and purified using Ni-NTA column followed by dialysis into final buffer containing 25 mM Tris-HCl pH 8.0, 250 mM NaCl.
(§2) KHK Biochemical Assay (IC50)
(§3) Compounds were tested for KHK enzyme inhibition in a high-throughput 384-well assay format using the ADP-Glo assay (Promega) in buffer consisting of 50 mM Hepes (pH 7.4), 140 mM KCl, 5 mM MgCl2 and 0.01% Triton-X. 0.2 nM. […] Compounds were serially diluted (1:3) in DMSO.
(§4) The compounds were pre-incubated with 5 μL of 2× final enzyme concentration for 30 minutes before adding 5 μL of 2× final concentration of ATP and fructose. The plates were incubated at room temperature for 4 hours before adding ADP-Glo reagent to quench the enzyme reaction, followed by incubation at room temperature for 1 hour. The ADP-Glo detection reagent was then added to the plates and luminescence was measured on the Envision plate reader after 1 hour.
(In general: ADP-Glo first removes unused ATP, then detects ADP through luciferase.)

A further experiment concerns the target human KHK-A (Homo sapiens (Human), UniProt P50053). Kind of experiment: KHK Biochemical Assay (IC50), ADP-Glo, KHK-A. The following applies: average of at least two separate assays. The method, then:
as §1, §2, §3, §4

Chain of human KHK-C (P50053 whole entry, the tested form may be a part): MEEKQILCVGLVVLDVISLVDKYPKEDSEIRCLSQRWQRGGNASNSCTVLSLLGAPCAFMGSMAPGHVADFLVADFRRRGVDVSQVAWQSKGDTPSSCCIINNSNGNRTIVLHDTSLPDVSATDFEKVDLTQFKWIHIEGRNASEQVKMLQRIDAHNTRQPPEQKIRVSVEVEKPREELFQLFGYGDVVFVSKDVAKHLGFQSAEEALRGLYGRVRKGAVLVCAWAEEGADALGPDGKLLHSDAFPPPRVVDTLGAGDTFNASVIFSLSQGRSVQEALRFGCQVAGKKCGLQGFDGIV
Chain of human KHK-A (P50053 other isoform, or with tags, fused parts or gaps): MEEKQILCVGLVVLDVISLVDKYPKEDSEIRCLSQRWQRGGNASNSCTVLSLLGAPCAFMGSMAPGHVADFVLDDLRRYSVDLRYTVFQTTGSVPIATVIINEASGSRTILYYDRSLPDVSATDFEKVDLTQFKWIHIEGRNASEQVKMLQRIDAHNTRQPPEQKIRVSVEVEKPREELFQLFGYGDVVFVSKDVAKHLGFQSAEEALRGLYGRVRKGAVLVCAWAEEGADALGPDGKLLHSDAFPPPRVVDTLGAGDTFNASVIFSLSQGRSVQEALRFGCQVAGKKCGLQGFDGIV

Take `C[C@H]1[C@H](O)CN1c1nc(-c2ccc(OC3CC3)c(S(C)(=N)=O)c2)c2c(n1)C(F)(F)CC2` (stereo partly drawn) [Example 541, (2-cyclopropoxy-5-(7,7-difluoro-2-((2S,3R)-3-hydroxy-2-methylazetidin-1-yl)-6,7-dihydro-5H-cyclopenta[d]pyrimidin-4-yl)phenyl)(imino)(methyl)-λ^6-sulfanone]: the IC50 (commonly the midpoint of a concentration-inhibition curve) against human KHK-C was determined as 1.3 nM; at human KHK-A, 0.9 nM.

For `CC1CC(NS(C)(=O)=O)c2ccc(-c3nc(N4CC[C@@H]4C)nc4c3CCC4)cc21` (stereo partly drawn) [Example 894, N-(3-methyl-5-(2-((S)-2-methylazetidin-1-yl)-6,7-dihydro-5H-cyclopenta[d]pyrimidin-4-yl)-2,3-dihydro-1H-inden-1-yl)methanesulfonamide], the figures for the 50% inhibitory concentration (IC50) at human KHK-C (ADP-Glo) and at human KHK-A (ADP-Glo) were 20.5 nM and 106 nM, respectively.

Regarding `C[C@H]1CCN1c1nc(-c2ccccc2)c2c(n1)C1CC1C2` (mixture of isomers) [Example 332, 9-[(2S)-2-methylazetidin-1-yl]-7-phenyl-8,10-diazatricyclo[4.4.0.02,4]deca-1(10),6,8-triene], the concentration for half-maximal inhibition (IC50) on human KHK-C (ADP-Glo) came out at 2170 nM; against human KHK-A (ADP-Glo), 1910 nM.

For the compound `Cc1cc(-c2nc(N3C[C@@H](O)[C@@H]3C)nc3c2CCC3(F)F)cc(S(C)(=N)=O)c1` (stereo partly drawn) [Example 720, (3-(7,7-difluoro-2-((2S,3R)-3-hydroxy-2-methylazetidin-1-yl)-6,7-dihydro-5H-cyclopenta[d]pyrimidin-4-yl)-5-methylphenyl)(imino)(methyl)-λ^6-sulfanone], the half-inhibitory concentration (IC50) was 8.8 nM on human KHK-C and 11.6 nM against human KHK-A.

Take `C[C@H]1CCN1c1nc(-c2ccccc2)c2occc2n1` [Example 12, (S)-2-(2-methylazetidin-1-yl)-4-phenylfuro[3,2-d]pyrimidine]: the IC50 at human KHK-C (ADP-Glo) stood at 2600 nM; at human KHK-A (ADP-Glo) it was 2620 nM.

For `C[C@H]1[C@H](F)CN1c1nc(-c2ccc3c(c2)S(=O)(=O)C[C@@H]3NS(C)(=O)=O)c2c(n1)C(F)(F)CC2` (single isomer, unassigned) [Example 679], the values for the half-inhibitory concentration (IC50) against human KHK-C and against human KHK-A were 0.1 nM and 2.3 nM, respectively.

With `COC(=O)CCc1cccc(-c2nc(N3CC[C@@H]3C)nc3c2CCC3)c1` [Example 1, methyl (S)-3-(3-(2-(2-methylazetidin-1-yl)-6,7-dihydro-5H cyclopenta[d]pyrimidin-4-yl)phenyl)propanoate], the half-inhibitory concentration (IC50) against human KHK-C (ADP-Glo) came out at 689 nM; against human KHK-A (ADP-Glo), 952 nM.

Consider `C[C@H]1CCN1c1nc2c(c(-c3ccnc(NCCO)c3)n1)CCC2` [Example 282], for which the results for the IC50 at human KHK-C (ADP-Glo) and against human KHK-A (ADP-Glo) were 48.2 nM and 42.6 nM, respectively.

Take `c1ccc(-c2nc(C3CC4CCC3C4)nc3c2CCC3)cc1` (stereo not shown) [Example 98, 2-(bicyclo[2.2.1]heptan-2-yl)-4-phenyl-6,7-dihydro-5H-cyclopenta[d]pyrimidine]: the IC50 against human KHK-C (ADP-Glo) and at human KHK-A (ADP-Glo) was over 5000 nM in each case.

For `NC1(c2ccc(-c3nc(N4CC[C@@H]4C(F)(F)F)nc4c3CCC4(F)F)cc2)CCOC1` (stereo partly drawn) [Example 587, 3-[4-[7,7-difluoro-2-[(2R)-2-(trifluoromethyl)azetidin-1-yl]-5,6-dihydrocyclopenta[d]pyrimidin-4-yl]phenyl]tetrahydrofuran-3-amine], the IC50 at human KHK-C worked out at 0.4 nM; on human KHK-A it was 0.5 nM.

In the case of `C[C@H]1CCN1c1nc2c(c(-c3cccc(C(=O)Nc4cc[nH]n4)c3)n1)CCC2` [Example 65, (S)-3-(2-(2-methylazetidin-1-yl)-6,7-dihydro-5H-cyclopenta[d]pyrimidin-4-yl)-N-(1H-pyrazol-3-yl)benzamide], the concentration for half-maximal inhibition (IC50) on human KHK-C (ADP-Glo) was 245 nM; against human KHK-A (ADP-Glo), 150 nM.

In the case of `C[C@H]1[C@H](O)CN1c1nc(-c2ccc3c(c2)CC2OC(=O)NC32)c2c(n1)C(F)(F)CC2` (stereo partly drawn) [Example 557, 6-(7,7-difluoro-2-((2S,3R)-3-hydroxy-2-methylazetidin-1-yl)-6,7-dihydro-5H-cyclopenta[d]pyrimidin-4-yl)-3,3a,8,8a-tetrahydro-2H-indeno[1,2-cl]oxazol-2-one], the results for the IC50 on human KHK-C and at human KHK-A were 8.6 nM and 10.8 nM, respectively.

As to `CC(=O)Nc1cccc(-c2nc(N3CC[C@@H]3C)nc3c2CCC3)c1` [Example 40, (S)—N-(3-(2-(2-methylazetidin-1-yl)-6,7-dihydro-5H-cyclopenta[d]pyrimidin-4-yl)phenyl)acetamide], the 50% inhibitory concentration (IC50) was 57 nM against human KHK-C (ADP-Glo) and 54.3 nM against human KHK-A (ADP-Glo).

Take `C[C@H]1[C@H](O)CN1c1nc(-c2ccc(OC3CC3)c([S@](C)(=N)=O)c2)c2c(n1)C(F)(F)CC2` (single isomer, unassigned) [Example 543]: the IC50 against human KHK-C is 10.6 nM; against human KHK-A, 6.2 nM.

`COc1cc(-c2nc(N3C[C@@H](O)[C@@H]3C)nc3c2CCC3(F)F)cc(S(C)(=N)=O)c1` (stereo partly drawn) [Example 719, (3-(7,7-difluoro-2-((2S,3R)-3-hydroxy-2-methylazetidin-1-yl)-6,7-dihydro-5H-cyclopenta[d]pyrimidin-4-yl)-5-methoxyphenyl)(imino)(methyl)-λ^6-sulfanone]: the 50% inhibitory concentration (IC50) on human KHK-C worked out at 21.7 nM; against human KHK-A, 32.1 nM.

For `C[C@H]1[C@H](O)CN1c1nc2c(c(-c3cccc(S(N)(=O)=O)c3)n1)CCOC2` [Example 286], the 50% inhibitory concentration (IC50) is 753 nM on human KHK-C (ADP-Glo) and 718 nM on human KHK-A (ADP-Glo).

`C[C@H]1CCN1c1nc2c(c(-c3ccc(C(=O)N(C)C)cc3)n1)CCC2` [Example 293, (S)—N,N-dimethyl-4-(2-(2-methylazetidin-1-yl)-6,7-dihydro-5H-cyclopenta[d]pyrimidin-4-yl)benzamide]: the IC50 came to 200 nM at human KHK-C (ADP-Glo) and 153 nM against human KHK-A (ADP-Glo).

Take `NC1(c2ccc(-c3nc(N4CC[C@@H]4C(F)(F)F)nc4c3CCC4(F)F)cc2F)COC1` [Example 589, 3-[4-[7,7-difluoro-2-[(2R)-2-(trifluoromethyl)azetidin-1-yl]-5,6-dihydrocyclopenta[d]pyrimidin-4-yl]-2-fluoro-phenyl]oxetan-3-amine]: the values for the IC50 against human KHK-C and on human KHK-A were 1.4 nM and 2.7 nM, respectively.

Take `C[C@H]1CCN1c1nc2c(c(-c3ccccc3)n1)CC1(CC1)C2` [Example 335, 2-[(2S)-2-methylazetidin-1-yl]-4-phenyl-spiro[5,7-dihydrocyclopenta[d]pyrimidine-6,1′-cyclopropane]]: the concentration for half-maximal inhibition (IC50) on human KHK-C (ADP-Glo) and against human KHK-A (ADP-Glo) was over 50000 nM each time.

For `C[C@H]1CCN1c1nc(-c2ccccc2)c2c(cnn2C)n1` [Example 11, (S)-1-methyl-5-(2-methylazetidin-1-yl)-7-phenyl-1H-pyrazolo[4,3-d]pyrimidine], the 50% inhibitory concentration (IC50) against human KHK-C (ADP-Glo) worked out at 408 nM; at human KHK-A (ADP-Glo), 453 nM.

`C[C@H]1[C@H](O)CN1c1nc(-c2cnc3c(c2)OC[C@H]3NS(C)(=O)=O)c2c(n1)C(F)(F)CC2` (single isomer, unassigned) [Example 822]: the IC50 is 24.2 nM against human KHK-C (ADP-Glo) and over 100 nM against human KHK-A (ADP-Glo).

For the compound `C[C@@H]1[C@@H](C)CN1c1nc2c(c(-c3ccc(C(N)=O)cc3)n1)CCC2` [Example 108], the half-maximal inhibitory concentration (IC50) stood at 466 nM on human KHK-C (ADP-Glo) and 594 nM against human KHK-A (ADP-Glo).

Take `C[C@H]1[C@H](O)CN1c1nc2c(c(-c3ccc(CN)s3)n1)CCC2` [Example 363, (2S,3R)-1-[4-[5-(aminomethyl)-2-thienyl]-6,7-dihydro-5H-cyclopenta[d]pyrimidin-2-yl]-2-methyl-azetidin-3-ol]: the results for the IC50 at human KHK-C (ADP-Glo) and on human KHK-A (ADP-Glo) were 29.1 nM and 25.8 nM, respectively.

Consider `C[C@H]1[C@H](O)CN1c1nc(-c2ccc(C3(N)CCOCC3)cc2)c2c(n1)C(F)(F)CC2` [Example 838, (2S,3R)-1-(4-(4-(4-aminotetrahydro-2H-pyran-4-yl)phenyl)-7,7-difluoro-6,7-dihydro-5H-cyclopenta[d]pyrimidin-2-yl)-2-methylazetidin-3-ol], for which the figures for the half-inhibitory concentration (IC50) against human KHK-C (ADP-Glo) and against human KHK-A (ADP-Glo) were 4.1 nM and 4.8 nM, respectively.

As to `COc1cc(-c2nc(N3CC[C@@H]3C)nc3c2CCC3)ccc1CS(N)(=O)=O` [Example 862, (S)-(2-methoxy-4-(2-(2-methylazetidin-1-yl)-6,7-dihydro-5H-cyclopenta[d]pyrimidin-4-yl)phenyl)methanesulfonamide], the IC50 against human KHK-C (ADP-Glo) stood at 76.4 nM; against human KHK-A (ADP-Glo), 48.1 nM.

Consider `C[C@H]1CCN1c1nc2c(c(-c3cccc(CNC(=O)C(C)(C)O)c3)n1)CCC2` [Example 228, 2-hydroxy-2-methyl-N-[[3-[2-[(2S)-2-methylazetidin-1-yl]-6,7-dihydro-5H-cyclopenta[d]pyrimidin-4-yl]phenyl]methyl]propanamide], for which the figures for the 50% inhibitory concentration (IC50) at human KHK-C (ADP-Glo) and at human KHK-A (ADP-Glo) were 143 nM and 159 nM, respectively.

Turning to `Cc1cc(-c2nc(N3CC[C@@H]3C)nc3c2CCC3)on1` [Example 326, 3-methyl-5-[2-[(2S)-2-methylazetidin-1-yl]-6,7-dihydro-5H-cyclopenta[d]pyrimidin-4-yl]isoxazole], the IC50 on human KHK-C (ADP-Glo) turned out to be 228 nM; on human KHK-A (ADP-Glo) it was 231 nM.

For `C[C@H]1CCN1c1nc2c(c(-c3cccc(C(=O)N[C@H]4CC[C@@H]4O)c3)n1)CCC2` (racemic) [Example 59, N-((18*,28*)-2-hydroxycyclobutyl)-3-(2-((8)-2-methylazetidin-1-yl)-6,7-dihydro-5H-cyclopenta[d]pyrimidin-4-yl)benzamide], the IC50 against human KHK-C (ADP-Glo) was determined as 171 nM; at human KHK-A (ADP-Glo) it was 42.9 nM.

On to `COC1Cc2cc(-c3nc(N4CC[C@@H]4C)nc4c3CCC4)ccc2C1NS(C)(=O)=O` (stereo partly drawn) [Example 892, N-(2-methoxy-5-(2-((S)-2-methylazetidin-1-yl)-6,7-dihydro-5H-cyclopenta[d]pyrimidin-4-yl)-2,3-dihydro-1H-inden-1-yl)methanesulfonamide], for which the IC50 against human KHK-C (ADP-Glo) amounted to 99.5 nM; at human KHK-A (ADP-Glo), 330 nM.
